Results: patent EP4678629A1, “IONIZABLE LIPID MOLECULE, PREPARATION METHOD THEREFOR AND USE THEREOF” (Maxirna (Shanghai) Pharmaceutical Co., Ltd., priority 2023, dated 2024)

Legend:
[1] = Size and polydispersity index (PDI) of the lipid nanoparticle by dynamic light scattering; assay type: physicochemical; details: LNP encapsulating eGFP mRNA, ionizable lipid/DOPE/cholesterol/DMG-PEG2000 50/10/48.25/1.25 mol%, N/P 12; for Particle size: in nm (unit assumed)
In short: (§1)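 LNPs were made by microfluidic mixing of ionizable lipid/DOPE/cholesterol/DMG-PEG2000 (50/10/48.25/1.25 mol%) in ethanol with eGFP mRNA in 20 mM citrate pH 6.1, N/P 12, then ultrafiltered into DPBS and 0.2 µm filtered. Size and PDI by DLS at 173° backscatter; encapsulation by Ribogreen.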

DC2.4 cells = assay: In vitro transfection of cells with eGFP-mRNA lipid nanoparticle (LNP preparation), fluorescence imaging and flow cytometry; assay type: cell-based, mouse; details: DC2.4 cells, 200 ng of mRNA per well, after 24 hours; for Positive rate, %: eGFP positivity rate
In short: (§2)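 Mouse bone marrow-derived DC2.4 dendritic cells seeded at 2 × 10^5 cells/well in DMEM with 10% FBS, transfected with eGFP-mRNA LNPs the next day at 37 °C, 5% CO2. After 24 hours, viability, eGFP-positive rate and mean fluorescence intensity read by fluorescence imaging and flow cytometry.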

[2] = as above; assay type: cell-based, mouse; details: mouse, dc2.4 cells, 200 ng of mRNA per well, after 24 hours; read-out: Cell viability, %
In short: as §2

[3] = Encapsulation efficiency of the lipid nanoparticle (eGFP mRNA) by Ribogreen method; assay type: physicochemical; details: LNP encapsulating eGFP mRNA, ionizable lipid/DOPE/cholesterol/DMG-PEG2000 50/10/48.25/1.25 mol%, N/P 12
In short: as §1

mice = assay: In vivo transfection with Fluc-mRNA lipid nanoparticle (LNP preparation), live imaging of fluorescence intensity; details: 0.5 mg/kg; for fluorescence intensity: intravenous and intramuscular injection; for fluorescence intensity / whole-body expression: 6 and 24 hours; for whole-body expression: Fluc-mRNA LNP of Table 3 (DSPC)
Protocol: According to the method described in Example II , LNP lipid nanoparticles of Fluc-mRNA (Maxirna FLuc mRNA, 1 mg/mL), SM-102 (CAS number: 2089251-47-6, A.V.T (Shanghai) Pharmaceutical Co., Ltd.), and positive control 1 (US10195156B2, it was prepared according to the method described in the above embodiment, the main difference lay in replacing 2-((3-aminopropyl)amino)ethane-1-ol with 2-((2-aminoethyl)amino)ethane-1-ol, the structure was as shown in FIG. 1) were prepared respectively. Cholesterol (Chol), DSPC, DOPE, and DMG-PEG2000 were purchased from A.V.T (Shanghai) Pharmaceutical Co., Ltd. Mice were randomly selected, and the lipid nanoparticles were injected intravenously and intramuscularly (4 mice per group) at a dosage of 0.5 mg/kg. Tris and Fluc-mRNA were directly injected as controls. After 6 hours, 200 ul of 10 mg/ml D-luciferin potassium salt was respectively injected into each mouse through the tail vein. After 10 minutes, the mice were placed under a live imaging system to observe the total fluorescence intensity of each mouse and take photos for recording. After 24 hours, the mice were placed under the live imaging system to observe the total fluorescence intensity of each mouse and take photos for recording. Table 2: Preparation parameters of each LNP
(§3) LNP lipid nanoparticles of Fluc-mRNA were respectively prepared using the method described in Example II. Mice were randomly selected, and the lipid nanoparticles were injected intramuscularly (2 mice per group) at a dosage of 0.5 mg/kg. Tris was directly injected as a control. After 6 hours, 200 ul of 10 mg/ml D-luciferin potassium salt was respectively injected into each mouse through the tail vein. After 10 minutes, the mice were placed under a live imaging system to observe the total fluorescence intensity of each mouse and take photos for recording. After 24 hours, the mice were placed under the live imaging system to observe the total fluorescence intensity of each mouse and take photos for recording. Table 3: Preparation parameters of each LNP
as §3, with “II .” for “II.”, “(3” for “(2”, “4:” for “3:”

[4] = Fluc-mRNA LNP of Table 2 (DOPE), intramuscular
[5] = Fluc-mRNA LNP of Table 2 (DOPE)

CCCCCCCCCCCOC(=O)CCCN(CCO)CCCN(CCCC(=O)OCCCCCCCCCCC)CCCC(=O)OCCCCCCCCCCC [Example 12, Diundecyl 4,4'-((3-((2-hydroxyethyl)(4-oxo-4-(undecyloxy)butyl)amino)propyl)azanediyl)dibutanoate]
PDI [1]: 0.22
Particle size [1]: 88.51
Positive rate, % (DC2.4 cells): 97.78%
viability at 24 h [2]: 81.2%
Encapsulation rate, % [3]: 90.54%
expression in the chest and abdomen (mice; [4]): much lower than that of SM-102
fluorescence intensity, intramuscular injection administration (mice; [4]): still maintain high fluorescence intensity
fluorescence intensity (mice; [5]): stronger than that of positive control 1 and comparable to SM-102
whole-body expression (mice; intramuscular): even better than SM-102

CCCCCCCCCCCOC(=O)CCCCCN(CCO)CCCN(CCCCCC(=O)OCCCCCCCCCCC)CCCCCC(=O)OCCCCCCCCCCC [Example 11, Diundecyl 6,6'-((3-((2-hydroxyethyl)(6-oxo-6-(undecyloxy)hexyl)amino)propyl)azanediyl)dihexanoate]
PDI [1]: 0.17
Particle size [1]: 97.96
Positive rate, % (DC2.4 cells): 95.68%
viability at 24 h [2]: 84.3%
Encapsulation rate, % [3]: 90.99%
fluorescence intensity, intramuscular injection administration (mice; [4]): still maintain high fluorescence intensity
fluorescence intensity (mice; [5]): stronger than that of positive control 1 and comparable to SM-102

CCCCCCCCCCCOC(=O)CCCCCCCN(CCO)CCCN(CCCCCCCC(=O)OCCCCCCCCCCC)CCCCCCCC(=O)OCCCCCCCCCCC [Example 1, Diundecyl 8,8'-((3-((2-hydroxyethyl)(8-oxo-8-(undecyloxy)octyl)amino)propyl)azanediyl)dioctanoate]
PDI [1]: 0.18
Particle size [1]: 59.34
Positive rate, % (DC2.4 cells): 91.23%
viability at 24 h [2]: 92%
Encapsulation rate, % [3]: 96.32%
whole-body expression (mice; intramuscular): even better than SM-102

CCCCC/C=C\C/C=C\CCCCCCCCOC(=O)CCCN(CCCO)CCCN(CCCC(=O)OCCCCCCCC/C=C\C/C=C\CCCCC)CCCC(=O)OCCCCCCCC/C=C\C/C=C\CCCCC [Example 81, Di((9Z,12Z)-octadeca-9,12-dien-1-yl)4,4'-((3-((3-hydroxypropyl)(4-(((9Z,12Z)-octadeca-9,12-dien-1-yl)oxo)-4-oxobutyl)amino)propyl)azanediyl)dibutanoate]
Particle size [1]: 99.10
Cell viability, % (DC2.4 cells; 1440 min): 76.4%
Positive rate, % (DC2.4 cells): 93.39%
Encapsulation rate, % [3]: 99.10%
whole-body expression (mice; intramuscular): even better than SM-102
